From ChEMBL document CHEMBL1143543, “Potent 1,3,4-trisubstituted pyrrolidine CCR5 receptor antagonists: effects of fused heterocycles on antiviral activity and pharmacokinetic properties” (Bioorg Med Chem Lett, 2005) come the findings set out here.

Structures are written as SMILES. Some results are limits rather than exact numbers.

The target of series [1] is C-C chemokine receptor type 5 (Homo sapiens, UniProt P51681). Briefly: Displacement of [125I]-MIP-1 alpha from human C-C chemokine receptor type 5 expressed on CHO cell membranes.
The test system of series [2] is Human immunodeficiency virus 1. The experiment in a line: Antiinfective activity in HeLa cells against HIV-1(BAL) in the presence of 50% of human serum. It is filed as functional. The note with it: Human immunodeficiency virus 1, HeLa.
In series [3] the test system is Human immunodeficiency virus 1. Briefly: Antiinfective activity in HeLa cells against HIV-1(BAL) in the absence of 50% of human serum. It is filed as functional. The note with it: Human immunodeficiency virus 1, HeLa.
Series [4] is described as follows: Oral bioavailability in rat. The format is ADME, organism-based. The note with it: in vivo.
Series [5] in a line: Plasma clearance in rat. The format is ADME, organism-based. The note with it: read-out: Clp.
Series [6] in a line: Bioavailability in rat. It is filed as ADME, organism-based. The note with it: in vivo.
Series [7] in a line: Half life in rat. The note with it: in vivo. The format is ADME.
In series [8] the target is Voltage-gated L-type calcium channel (Homo sapiens, UniProt Q13936+Q13698+Q01668+O60840). The experiment in a line: Inhibitory concentration against L-type [Ca2+] channel. It is filed as protein assay.
The nature of series [9]: Inhibitory concentration against PBM cells. It is filed as functional. The note with it: PBMC.
Series [10] deals with Voltage-gated inwardly rectifying potassium channel KCNH2 (Homo sapiens, UniProt Q12809). The experiment in a line: Inhibitory activity against human Potassium channel HERG.
Sequence of Voltage-gated inwardly rectifying potassium channel KCNH2 (Q12809 whole entry): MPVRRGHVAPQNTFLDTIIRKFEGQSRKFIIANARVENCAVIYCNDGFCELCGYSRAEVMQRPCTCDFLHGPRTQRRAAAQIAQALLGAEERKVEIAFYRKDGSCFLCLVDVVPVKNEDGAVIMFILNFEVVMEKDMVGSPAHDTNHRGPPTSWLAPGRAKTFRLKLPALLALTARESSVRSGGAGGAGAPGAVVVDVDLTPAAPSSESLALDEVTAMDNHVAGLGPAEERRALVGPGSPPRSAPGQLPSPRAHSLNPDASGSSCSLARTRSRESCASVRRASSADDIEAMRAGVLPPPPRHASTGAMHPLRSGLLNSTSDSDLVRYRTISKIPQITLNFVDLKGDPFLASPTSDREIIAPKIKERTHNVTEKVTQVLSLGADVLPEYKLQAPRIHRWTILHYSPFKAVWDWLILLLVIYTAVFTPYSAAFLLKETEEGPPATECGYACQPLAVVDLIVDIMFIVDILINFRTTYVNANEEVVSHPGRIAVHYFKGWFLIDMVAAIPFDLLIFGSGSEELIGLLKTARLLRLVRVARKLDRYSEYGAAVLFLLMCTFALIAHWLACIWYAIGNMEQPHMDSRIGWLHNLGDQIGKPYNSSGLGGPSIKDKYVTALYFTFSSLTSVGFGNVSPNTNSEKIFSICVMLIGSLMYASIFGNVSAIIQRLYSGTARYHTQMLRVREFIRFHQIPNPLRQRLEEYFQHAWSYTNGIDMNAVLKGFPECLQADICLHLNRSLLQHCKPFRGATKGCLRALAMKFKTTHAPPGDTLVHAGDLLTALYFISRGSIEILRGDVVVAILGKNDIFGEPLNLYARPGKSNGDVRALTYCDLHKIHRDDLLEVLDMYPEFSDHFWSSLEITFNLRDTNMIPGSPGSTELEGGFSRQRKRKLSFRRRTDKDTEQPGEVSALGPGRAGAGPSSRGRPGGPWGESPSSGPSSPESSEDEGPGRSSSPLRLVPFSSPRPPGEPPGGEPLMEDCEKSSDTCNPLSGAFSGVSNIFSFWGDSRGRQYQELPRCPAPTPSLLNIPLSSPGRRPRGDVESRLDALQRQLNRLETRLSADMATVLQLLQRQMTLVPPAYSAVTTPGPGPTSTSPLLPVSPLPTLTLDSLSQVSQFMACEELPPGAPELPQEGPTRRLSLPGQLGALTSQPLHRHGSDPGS

Sequence of C-C chemokine receptor type 5 (P51681 whole entry): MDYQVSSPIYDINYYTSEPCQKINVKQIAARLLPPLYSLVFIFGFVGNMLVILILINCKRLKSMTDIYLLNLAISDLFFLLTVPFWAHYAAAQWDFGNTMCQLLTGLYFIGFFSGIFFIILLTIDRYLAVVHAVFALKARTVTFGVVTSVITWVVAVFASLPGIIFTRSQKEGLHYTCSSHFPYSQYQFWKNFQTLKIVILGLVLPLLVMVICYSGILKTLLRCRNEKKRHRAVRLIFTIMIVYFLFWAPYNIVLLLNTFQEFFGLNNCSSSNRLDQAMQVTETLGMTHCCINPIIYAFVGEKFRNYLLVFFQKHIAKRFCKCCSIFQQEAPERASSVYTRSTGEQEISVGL

`O=C(O)[C@@H](C1CCCCC1)N1C[C@H](CN2CCC(Cn3cnc4ccccc43)CC2)[C@@H](c2ccccc2)C1`: the IC50 in [1] was found to be 6.3 nM. Moreover, the IC90 in series [2] was over 300 nM; in series [3], 100 nM.

In turn, `O=C(O)[C@@H](CC1CCC1)N1C[C@H](CN2CCC(c3nnc4ccccn34)CC2)[C@@H](c2ccccc2)C1` yielded an IC50 in series [1] of 12 nM. For the same molecule, the 90% effect concentration (IC90) in series [2] is over 300 nM; in series [3], 100 nM.

Turning to `O=C(O)[C@@H](C1CCCCC1)N1C[C@H](CN2CCC(n3cnc(=O)c4ccccc43)CC2)[C@@H](c2ccccc2)C1`, in series [1], the IC50 was 100 nM.

For the molecule `O=C(O)[C@@H](C1CCCCC1)N1C[C@H](CN2CCC(CCCn3cnc4ccccc43)CC2)[C@@H](c2ccccc2)C1`, the IC50 in series [1] was 0.84 nM. The molecule further came in with a bioavailability in series [4] of under 2%. Moreover, the IC90 came out at 33 nM in [2] and 1.2 nM in series [3].

Consider `O=C(O)[C@@H](CC1CCC1)N1C[C@H](CN2CCC(c3cnc4ccc(-c5ccccc5)cn34)CC2)[C@@H](c2cccc(F)c2)C1`, for which the clearance in series [5] was found to be 83 mL/min/kg. In series [1], the IC50 stood at 0.8 nM. In series [6], this molecule gave a bioavailability of 19%. Moreover, the 90% effect concentration (IC90) amounted to 300 nM in series [2] and 11 nM in series [3]. Further, the half-life in series [7] is 96 min.

Molecule `O=C(O)[C@@H](C1CCCCC1)N1C[C@H](CN2CCC(CCn3cnc4ccccc43)CC2)[C@@H](c2ccccc2)C1` showed an IC50 in series [1] of 2.6 nM. Further, the figures for the IC90 in series [2] and in series [3] were over 300 nM and 100 nM, respectively.

On to `CCc1ccn2c(C3CCN(C[C@H]4CN([C@H](CC5CCC5)C(=O)O)C[C@@H]4c4cccc(F)c4)CC3)cnc2c1`, for which, in series [5], the clearance was 67 mL/min/kg. In [1], this molecule showed a 50% inhibitory concentration (IC50) of 0.35 nM. The bioavailability in series [6] was determined as 11%. In addition, the IC90 came to 11 nM in [2] and 0.13 nM in series [3]. Also, the half-life in series [7] is 150 min.

`O=C(O)[C@@H](CC1CCC1)N1C[C@H](CN2CCC(c3cnc4ccc(Cl)cn34)CC2)[C@@H](c2cccc(F)c2)C1`: the clearance in series [5] is 16 mL/min/kg. Also, the IC50 in [1] is 0.89 nM; in [8] it was over 10000 nM. This molecule yielded a bioavailability in [6] of 26%. Further, the results for the IC90 in series [2] and in series [3] were 100 nM and 1.2 nM, respectively. The half-life in [7] is 42 min.

Consider `O=C(O)[C@@H](C1CCCCC1)N1C[C@H](CN2CCC(n3cnc4ccccc4c3=O)CC2)[C@@H](c2ccccc2)C1`, for which the IC50 in [1] was determined as 12 nM.

Take `O=C(O)[C@@H](CC1CCC1)N1C[C@H](CN2CCC(c3cnc4ccc(F)cn34)CC2)[C@@H](c2cccc(F)c2)C1`: in [5], the clearance turned out to be 19 mL/min/kg. Moreover, in [1], the IC50 amounted to 0.3 nM. This molecule registered a bioavailability in series [6] of 38%. Besides, the IC90 in series [2] was 300 nM; in [3] it was 3.7 nM. This molecule showed a half-life in series [7] of 48 min.

For the molecule `O=C(O)[C@@H](C1CCCCC1)N1C[C@H](CN2CCC(n3c(=O)[nH]c4ccccc43)CC2)[C@@H](c2ccccc2)C1`, the IC50 in [1] worked out at 63 nM.

`O=C(O)[C@@H](CC1CCC1)N1C[C@H](CN2CCC(c3cnc4ccc([N+](=O)[O-])cn34)CC2)[C@@H](c2cccc(F)c2)C1`: in series [5], the clearance came to 120 mL/min/kg. In series [1], the 50% inhibitory concentration (IC50) amounted to 0.6 nM. The bioavailability in series [6] worked out at 61%. Also, the concentration for an effect of 90% (IC90) in series [2] is 300 nM; in series [3], 100 nM. Besides, the half-life in series [7] is 12 min.

In turn, `O=C(O)[C@@H](C1CCCCC1)N1C[C@H](CN2CCC(n3cnc4ncccc43)CC2)[C@@H](c2ccccc2)C1` registered an IC50 in series [1] of 23 nM.

In the case of `O=C(O)[C@@H](C1CCCCC1)N1C[C@H](CN2CCC(n3nnc4ccccc43)CC2)[C@@H](c2ccccc2)C1`, the IC50 in series [1] turned out to be 8.2 nM. Besides, the 90% effect level in series [3] (IC90) was put at 100 nM.

In series [9], `O=C(O)[C@@H](CC1CCC1)N1C[C@H](CN2CCC(CCCc3ccccc3)CC2)[C@@H](c2ccccc2)C1` returned an IC95 of under 8 nM.

Regarding `Cc1cc(C)n2ncc(C3CCN(C[C@H]4CN([C@H](CC5CCC5)C(=O)O)C[C@@H]4c4cccc(F)c4)CC3)c2n1`, the IC50 in series [1] stood at 7 nM. Further, the IC90 in series [2] and in series [3] was over 300 nM in each case.

For the molecule `O=C(O)[C@@H](CC1CCC1)N1C[C@H](CN2CCC(c3cnc4ccccn34)CC2)[C@@H](c2cccc(F)c2)C1`, the clearance in series [5] was determined as 38 mL/min/kg. Also, the IC50 in [1] is 0.42 nM; in series [8], over 10000 nM. Further, the bioavailability in [6] was 4%. In addition, the concentration for an effect of 90% (IC90) came out at 33 nM in series [2] and 1.2 nM in series [3]. The half-life in series [7] is 126 min.

As to `O=C(O)[C@@H](CC1CCC1)N1C[C@H](CN2CCC(c3cnc4cnccn34)CC2)[C@@H](c2cccc(F)c2)C1`, in series [1], the IC50 turned out to be 1 nM. In addition, the 90% effect concentration (IC90) in series [2] worked out at 100 nM; in series [3], 11 nM.

`O=C(O)[C@@H](CC1CCC1)N1C[C@H](CN2CCC(c3cn4cccnc4n3)CC2)[C@@H](c2ccccc2)C1` gave an IC50 in series [1] of 200 nM.

Turning to `O=C(O)[C@@H](C1CCCCC1)N1C[C@H](CN2CCC(n3cnc4ccccc43)CC2)[C@@H](c2ccccc2)C1`, the IC50 in series [1] came out at 2.5 nM. In series [4], this molecule showed a bioavailability of under 2%. Also, the IC90 in series [2] is 100 nM; in series [3] it was 11 nM.

For `O=C(O)[C@@H](CC1CCC1)N1C[C@H](CN2CCC(c3cnc4c(Cl)cc(Cl)cn34)CC2)[C@@H](c2cccc(F)c2)C1`, the clearance in series [5] turned out to be 20 mL/min/kg. Further, in [1], the IC50 was 0.5 nM. For the same molecule, the bioavailability in series [6] was 39%. Also, the IC90 in series [2] came to 300 nM; in series [3], 33 nM. Further, the half-life in series [7] is 24 min.

`O=C(O)[C@@H](CC1CCC1)N1C[C@H](CN2CCC(c3cnc4ccc(C(F)(F)F)cn34)CC2)[C@@H](c2cccc(F)c2)C1`: in series [5], the clearance worked out at 18 mL/min/kg. Also, the IC50 is 0.82 nM in [1], over 10000 nM in [8] and under 10000 nM in [10]. This molecule also had a bioavailability in [6] of 26%. For the same molecule, the results for the IC90 in series [2] and in series [3] were 300 nM and 11 nM, respectively. The half-life in [7] was 48 min.

Turning to `O=C(O)[C@@H](C1CCCCC1)N1C[C@H](CN2CCC(n3cnc4cccnc43)CC2)[C@@H](c2ccccc2)C1`, the IC50 in series [1] stood at 2.8 nM. The molecule further yielded an IC90 in [3] of 33 nM.

`O=C(O)[C@@H](C1CCCCC1)N1C[C@H](CN2CCC(c3c[nH]c4ccccc34)CC2)[C@@H](c2ccccc2)C1` had an IC50 in series [1] of 10 nM.

Turning to `O=C(O)[C@@H](CC1CCC1)N1C[C@H](CN2CCC(c3ncc4ccccn34)CC2)[C@@H](c2cccc(F)c2)C1`, the IC50 in series [1] amounted to 13 nM. For the same molecule, the concentration for an effect of 90% (IC90) in series [2] and in [3] was over 300 nM each time.

In series [1], `O=C(O)[C@@H](CC1CCC1)N1C[C@H](CN2CCC(c3cnc4ncccn34)CC2)[C@@H](c2cccc(F)c2)C1` returned an IC50 of 3.5 nM. In addition, the results for the IC90 in [2] and in series [3] were 100 nM and 33 nM, respectively.

For the molecule `O=C(O)[C@@H](CC1CCC1)N1C[C@H](CN2CCC(c3cn4ccncc4n3)CC2)[C@@H](c2cccc(F)c2)C1`, the IC50 in series [1] came to 29 nM. Besides, the concentration for an effect of 90% (IC90) in series [2] and in series [3] was 300 nM in each case.

For `O=C(O)[C@@H](CC1CCC1)N1C[C@H](CN2CCC(c3cnc4cccnn34)CC2)[C@@H](c2cccc(F)c2)C1`, the IC50 in [1] worked out at 3 nM. The IC90 in series [2] came out at 300 nM; in [3], 11 nM.

The molecule `O=C(O)[C@@H](CC1CCC1)N1C[C@H](CN2CCC(c3cn4ccccc4n3)CC2)[C@@H](c2cccc(F)c2)C1` gave an IC50 in series [1] of 65 nM.
